Data taken from publication PMC6403188, “Species-Specific Structural Requirements of Alpha-Branched Trehalose Diester Mincle Agonists” (Frontiers in Immunology, 2019).

Experiments:
mouse Mincle = biological target: T1, mouse Mincle (Mus musculus, UniProt Q9R0Q8); test: HEK cells expressing mouse Mincle with NF-κB-driven SEAP reporter; assay type: cell-based; conditions: average calculated EC50, n = 3; plate-coated compound, 24 h; read-out: mMincle EC50 (converted)
T1 construct: host or cells: HEK (HEK-Blue) cells with NF-κB-driven SEAP reporter
T1 sequence (Q9R0Q8 1-214): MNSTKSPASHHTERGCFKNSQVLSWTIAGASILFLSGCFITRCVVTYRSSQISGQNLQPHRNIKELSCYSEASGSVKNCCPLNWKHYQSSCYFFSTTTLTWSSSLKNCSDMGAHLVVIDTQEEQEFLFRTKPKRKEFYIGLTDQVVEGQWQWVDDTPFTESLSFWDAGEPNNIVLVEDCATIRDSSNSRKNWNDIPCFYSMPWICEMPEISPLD
Protocol: Human and mouse Mincle expressing HEK cells were obtained from Invivogen (San Diego, CA). Cells were cultured according to the manufactures instructions in DMEM with 10% FBS, 50 U/ml penicillin, […] streptomycin, […] Normocin, 2 mM L-glutamine, 30 μg/ml blasticidin, 1 μg/ml puromycin and 1x HEK-Blue™ CLR Selection. For assay, indicated compounds were serially diluted in diluent (50%IPA/50% isooctane), 20 μl of a 10x final concentration were applied to the bottom of a 96-well tissue culture plate and the solvent was evaporated for >1 h in a biosafety hood. HEK cells were applied to the plates at a density of 3 × 10^5 cells/well and incubated for 18–24 h at 37°C. Cell supernatants were harvested and analyzed via the manufacturer's instructions using Hek-Blue^TM Detection. SEAP activity was assessed by reading the optical density (OD) at 620–655 nm with a microplate reader; data are expressed as the fold change in OD over vehicle treated cells.
To investigate the capacity of these molecules to bind to and activate the Mincle receptor, we used human embryonic kidney (HEK) cells expressing the human or mouse Mincle receptor along with an NF-κB-driven secreted embryonic alkaline phosphatase (SEAP) reporter. Many of the αTDE compounds were able to induce production of SEAP in a dose dependent manner (Figure 2). HEK null cells (HEK cells containing the NF-kB reporter without Mincle receptor) were used as a negative controls to confirm the receptor specificity of the compounds in HEK cells expressing human or mouse Mincle reporter (Supplemental Figure 4). […] The relative activity of TDM and TDB in the human and mouse HEK cells is consistent with the results reported by others ([20]). […] This synthetic version is a shorter chain version of the lipid-derived one reported to be “human-specific” ([28]).
Figure 2 Activation of human or mouse Mincle in response to synthetic αTDE compounds. The indicated compounds were dissolved in 50% isopropanol/isooctane, serially diluted in vehicle and then dried to the bottom of a tissue culture plate. HEK cells transfected with human (A–C) or mouse (D–F) Mincle and an NF-κB-driven SEAP reporter were incubated with the compounds for 24 h followed by assessment of the supernatants for SEAP levels. Data are represented as fold change in OD650 over vehicle treated cells. Graphs are mean values from three independent experiments ± SEM. Table in (G) represents the average calculated EC50 and average max SEAP value (± SD, n = 3) for each compound in each cell line. […]

primary human PBMCs = test: Cytokine production from primary human PBMCs (multiplex); assay type: cell-based; conditions: plate-coated compound, 24 h, 5 individual donors
From the text: PBMCs were obtained via leukapheresis from normal donors (AllCells, Berkeley, CA) or fresh blood was obtained from health human donors through a University of Montana Institutional Review Board (IRB) approved protocol. PBMCs obtained via leukapheresis were washed in 1x PBS and cryopreserved in freezing media (50% RPMI, 40% FCS, 10% DMSO) for future use. PBMCs from on-site human donors were separated from whole blood via density gradient separation using Histopaque 1077 (Sigma). Cells were washed in RPMI media containing 10% heat inactivated FBS, penicillin/streptomycin/glutamine (complete media) and resuspended at the desired cell concentration in complete media. Cells were treated with the indicated compound concentrations by addition to plates coated with a serial dilution of the stock compound in diluent (50% isopropanol/50% isooctane, fully evaporated).
Supernatants were harvested from treated cells following 18–24 h of incubation. Supernatants were analyzed using a DuoSet TNFα ELISA (R&D Systems, Minneapolis, MN) or Luminex multiplex panel for analytes TNFα, IL-1β, IL-6, IFNγ, IL-12p70, and IL-23 (R&D Systems) per the manufacturer's instructions. Multiplex analysis was performed using a Luminex 200 instrument (Luminex Corporation) and analyzed with StarStation2.3 software. ELISAs were read on a plate reader at 450 nm and cytokine concentration was calculated by fitting the standard curve OD values to a 4-parameter logistical model using curve fitting software (XLfit, IDBS, Alameda, CA).
To determine if the abridged cytokine repertoire induced by the compounds from the cell lines was a cell-specific or compound-specific phenomenon, the response of a heterogeneous primary human PBMCs to the αTDE compound library was also evaluated. Primary human PBMCs were incubated with the αTDE compound and supernatants were evaluated by multiplex cytokine ELISA for TNFα, IL-1β, IL-23, IL-6 (Th17 associated) and IFNγ and IL-12p70 (Th1 associated). As with THP-1 cells, robust dose-responsive induction of TNFα and IL-1β was detected, but unlike the THP-1 cells dose-responsive stimulation of IL-6 and IL-23 production was also noted in response to a subset of the αTDE compounds (Figure 5). No production of the Th1-associated IFNγ or IL-12p70 were detected (data not shown). […] Consistent with the previous THP-1 cell responses, the longer chain length compounds, B32-B46, induced minimal cytokine responses only at the highest dose evaluated (Figure 5, right graphs).
Figure 5 Cytokine production from primary human mononuclear cells in response to stimulation with synthetic trehalose diester compounds. […] Cryopreserved PBMCs were thawed and applied to the compound-coated plates and incubated at 37°C; supernatant was harvested 24 h later and analyzed for TNFα, IL-1β, IL-23, IL-6. […]

[1] = test system: Hek Blue human or mouse Mincle-expressing cells; assay type: cell-based; conditions: top concentrations, 24 h; compared with vehicle only-treated cells
BALB/c mice [2] = test: Anti-M72 serum antibody ELISA after i.m. vaccination with M72 antigen plus liposomal adjuvant; assay type: in vivo, mouse; conditions: 0.125 μg M72 antigen plus 2, 10, or 50 nmol adjuvant in DDA:DSPC liposomes, i.m. two times, 14 days post-secondary vaccination
Protocol: (§1) Animal studies were carried out in an OLAW and AAALAC accredited vivarium in accordance with University of Montana's IACUC guidelines for the care and use of laboratory animals. Groups of 10–14 BALB/c mice were vaccinated intramuscularly with 0.125 μg M72 antigen and indicated concentrations of various CLR adjuvant candidates (liposomal formulations) in 50 μl total volume per injection. After 14 days, blood and serum samples were collected and a secondary vaccination was administered. At day 19 (5 days post-secondary vaccination), 3–6 mice per group were euthanized and spleens were harvested the assessment of cell-mediated immunity. At day 28 (14 days post booster vaccination) the remaining 7 mice in each group were euthanized and blood was collected for the measurement of M72 specific humoral immunity.
Sera was collected from mice 14 days post-primary and 14 days post-secondary injection and diluted according to the expected antibody response (between 1:10 and 1:5000). Plates were coated with 100 μl of the full-length M72 protein at 1 μg/mL. Following washing (PBS plus tween 20) and blocking (SuperBlock, Scytek Laboratories), plates were incubated with diluted serum for 1 h followed by anti-mouse IgG, IgG1, or IgG2a-HRP secondary antibody (Bethyl Laboratories) and TMB substrate (BD). Plates were read at 450 nm. Antibody titers were determined by calculating titer of each sample at OD 0.3.
Figure 6 Serum antibody levels from mice in response to vaccination with recombinant M72 antigen and various αTDE compounds. BALB/c mice, 10 per group, were vaccinated two times i.m. with 0.125 μg antigen plus 2, 10, or 50 nmol of the indicated adjuvant. Serum was analyzed from 7 mice at 14 days post-secondary vaccination for presence of anti-M72 IgG1 and IgG2a antibodies via ELISA.
(§2) Figure 8 B16 liposomes biases a Th17/Th2 adaptive immune response. BALB/c mice, 14 per group, were immunized twice, 14 days apart, i.m with 0.1, 1, or 10 μg of M72 antigen plus either blank DDA:DSPC liposome or B16 loaded (10 nmol final dose) liposome. (A,B) M72-specific serum antibody titers at 14 days post-secondary vaccination. (C–F) Spleens were harvested from mice at 5 days post-secondary vaccination and restimulated with 1 μg/mL whole antigen and transport inhibitors followed by surface staining for CD3, CD4, and CD8 and then intracellular cytokine staining. (C) Percent of live, CD3^+/CD4^+/IL5+ cells, (D) Percent of live, CD3^+/CD8^+/IFNγ+ cells, (E) Percent of live, CD3^+/CD4^+/IL17+ cells, and (F) Percent of live, CD3^+/CD8^+/IL17+ cells. ^*p < 0.05, ^**p < 0.01, ^****p < 0.001.

BALB/c mice [3] = test: Splenocyte restimulation with M72 and intracellular cytokine staining of CD4/CD8 T cells after vaccination; assay type: in vivo, mouse
Protocol: as §1
Spleens were harvested from vaccinated mice 5 days after secondary injections and splenocytes were harvested by disruption of the spleens through a 100 μm filter. Red blood cells were lysed by incubation with red blood cell lysis buffer (Sigma) for 5 min followed by washing in 1x PBS. Cells were plated in a 96 well plate at 5 × 10^6 cells/well in 200 μL complete RPMI1640 media. Cells were incubated with 1 μg/mL M72 antigen for […] at 37°C. After 7 h, GolgiPlug (Brefeldin A, BD Biosciences) was added to each well and incubated at 37°C for a further 12 h. Following incubation, cells were stained with the cell surface antibodies against CD3e PerCP-Cy5.5 (Tonbo Biosciences, 145-2C11), CD4a APC-Cy7 (Tonbo Biosciences, RM4-5) and CD8a PE-Cy7 (Tonbo Biosciences, 53–6.7) and viability stain (Ghost 510, Tonbo Biosciences). Cells were treated with cytofix/cytoperm (BD) and stained with anti-IFNγ PE-CF594 (BD, XMG1.2), anti-IL2 FITC (Biolegend, JES6-5H4), anti-IL-5 PE (BD, TRFK5), anti-IL17A BV421 (Biolegend, TC11-18H10.1), and anti-TNFα APC (Invitrogen, MP6-XT22). Data was collected using an LSRII flow cytometer (BD) and analyzed using FlowJo 10.0 software (TreeStar). Splenocytes were gated on live, single cells, then CD3+ to identify all T cells, then gated as CD4+CD8- to identify CD4 T cells or CD4-CD8+ to identify CD8 T cells. Gates for intracellular cytokine positive CD4 or CD8 T cells are set based on re-stimulation of naïve splenocytes. Gating strategies for the detection of antigen specific CD4+ and CD8+ T cells are outlined in Supplemental Figure 3.
Figure 7 Induction of IL-17 producing CD4+ and CD8+ T cells from an αTDE adjuvanted M72 vaccine. BALB/c mice, 10 per group, were immunized two times i.m. with 0.125 μg antigen plus 2, 10, or 50 nmol of the indicated adjuvant. Spleens were harvested from a subset of 3 mice per group at 5 days post-secondary vaccination. Splenocytes were restimulated with 1 μg/mL whole antigen and transport inhibitors followed by surface staining for CD3, CD4, and CD8 and then intracellular cytokine staining. Data represent percentage of live, CD3^+/CD4^+, left, or CD3^+/CD8^+, right, cells that are also positive for IL-17A upon stimulation.
as §2
Supplemental Figure 10. Production of IFNɣ, IL-2, IL-5 or TNFα by CD4 or CD8 T cells in response to various CLR compounds. […]

| Structure (SMILES) | EC50 (mouse Mincle) [nM] | Th17-associated cytokine production (TNFα, IL-1β, IL-6, IL-23) from human PBMCs (primary human PBMCs) | Cell viability of Mincle HEK cells [1] | Anti-M72 serum IgG1 and IgG2a antibody (BALB/c mice [2]) | IL-5 production in CD8+ T cells (BALB/c mice [3]; 2 nmol adjuvant, 0.125 μg antigen, over liposome control) | IL-5 production in CD8+ T cells (BALB/c mice [3]; 50 nmol adjuvant, 0.125 μg antigen, over naïve and liposome control) | IL-17+ CD4+ and CD8+ T cells (Th17 response) after M72 re-stimulation (BALB/c mice [3]; 0.125 μg antigen plus 2, 10, or 50 nmol liposomal adjuvant, i.m. two times, spleens 5 days post-secondary) | TNFα production by T cells (BALB/c mice [3]; highest dose evaluated, 0.125 μg antigen, compared to controls) |
| --- | --- | --- | --- | --- | --- | --- | --- | --- |
| CCC(CC)C(=O)OC[C@H]1O[C@H](O[C@H]2O[C@H](COC(=O)C(CC)CC)[C@@H](O)[C@H](O)[C@H]2O)[C@H](O)[C@@H](O)[C@@H]1O [Compound B6] | 739 | mixed responses | – | – | – | – | – | – |
| CCCC(CCC)C(=O)OC[C@H]1O[C@H](O[C@H]2O[C@H](COC(=O)C(CCC)CCC)[C@@H](O)[C@H](O)[C@H]2O)[C@H](O)[C@@H](O)[C@@H]1O [Compound B8] | 2850 | readily detected | marked decreases in viability | – | – | – | – | – |
| CCCCC(CCCC)C(=O)OC[C@H]1O[C@H](O[C@H]2O[C@H](COC(=O)C(CCCC)CCCC)[C@@H](O)[C@H](O)[C@H]2O)[C@H](O)[C@@H](O)[C@@H]1O [Compound B10] | 3450 | readily detected | marked decreases in viability | – | – | – | – | – |
| CCCCCCCCCCCCCCCCCCCCC(CCCCCCCCCCCCCCCCCCCC)C(=O)OC[C@H]1O[C@H](O[C@H]2O[C@H](COC(=O)C(CCCCCCCCCCCCCCCCCCCC)CCCCCCCCCCCCCCCCCCCC)[C@@H](O)[C@H](O)[C@H]2O)[C@H](O)[C@@H](O)[C@@H]1O [Compound B42] | – | – | – | neither compound significantly enhanced | increased | increased | able to drive superior Th17 responses | increased compared to controls |
